Test results published in ChEMBL document CHEMBL1201862, “PubChem BioAssay data set” (2004).
Calls of active or inactive are those of the source.

How the values were obtained:
[1] = molecular target: Hepatocyte growth factor receptor (Homo sapiens, UniProt P08581); assay type: functional;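 further: kinase panel profiling across the kinome, with MET as the panel member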
[2] = molecular target: Leukocyte tyrosine kinase receptor (Homo sapiens, UniProt P29376); test: Navigating the Kinome. Panel member name: LTK; assay type: functional
Leukocyte tyrosine kinase receptor, sequence (P29376 whole entry): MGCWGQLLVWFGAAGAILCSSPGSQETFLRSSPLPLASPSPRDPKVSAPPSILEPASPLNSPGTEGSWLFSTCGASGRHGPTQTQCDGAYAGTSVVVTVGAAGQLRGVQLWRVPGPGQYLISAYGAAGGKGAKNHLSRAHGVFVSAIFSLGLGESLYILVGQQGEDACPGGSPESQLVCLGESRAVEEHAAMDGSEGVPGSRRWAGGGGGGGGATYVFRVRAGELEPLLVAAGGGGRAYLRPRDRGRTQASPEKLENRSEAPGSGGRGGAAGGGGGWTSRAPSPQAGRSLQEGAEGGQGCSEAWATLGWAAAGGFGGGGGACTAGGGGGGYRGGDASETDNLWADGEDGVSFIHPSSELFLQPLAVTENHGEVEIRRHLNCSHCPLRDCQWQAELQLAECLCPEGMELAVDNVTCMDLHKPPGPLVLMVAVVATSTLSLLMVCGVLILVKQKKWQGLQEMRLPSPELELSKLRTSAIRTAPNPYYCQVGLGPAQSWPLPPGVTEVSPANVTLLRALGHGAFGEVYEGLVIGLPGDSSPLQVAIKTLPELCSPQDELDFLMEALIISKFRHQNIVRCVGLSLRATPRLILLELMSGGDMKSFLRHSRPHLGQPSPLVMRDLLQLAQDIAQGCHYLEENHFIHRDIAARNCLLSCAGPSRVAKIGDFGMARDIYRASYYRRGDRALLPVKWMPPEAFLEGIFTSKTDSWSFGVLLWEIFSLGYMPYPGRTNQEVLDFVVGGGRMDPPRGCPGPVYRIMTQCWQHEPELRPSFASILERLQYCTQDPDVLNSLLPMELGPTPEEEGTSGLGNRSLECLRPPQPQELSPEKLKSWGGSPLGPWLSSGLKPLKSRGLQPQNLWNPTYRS

[3] = molecular target: cAMP-dependent protein kinase catalytic subunit PRKX (Homo sapiens, UniProt P51817); assay type: functional
cAMP-dependent protein kinase catalytic subunit PRKX, sequence (P51817 whole entry): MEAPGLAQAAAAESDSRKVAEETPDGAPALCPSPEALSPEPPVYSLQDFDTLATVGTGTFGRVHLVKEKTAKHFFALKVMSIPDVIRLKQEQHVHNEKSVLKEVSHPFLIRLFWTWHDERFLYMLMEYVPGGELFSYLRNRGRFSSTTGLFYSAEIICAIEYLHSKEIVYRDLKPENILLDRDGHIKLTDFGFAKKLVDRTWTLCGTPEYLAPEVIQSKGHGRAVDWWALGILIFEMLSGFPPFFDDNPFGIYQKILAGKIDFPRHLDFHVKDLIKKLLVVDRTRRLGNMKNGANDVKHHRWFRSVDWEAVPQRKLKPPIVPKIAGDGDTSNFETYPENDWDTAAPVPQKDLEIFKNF

[4] = molecular target: Serine/threonine-protein kinase Chk1 (Homo sapiens, UniProt O14757); assay type: functional;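 further: measured as one member of a kinome-wide kinase profiling panel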
Serine/threonine-protein kinase Chk1, sequence (O14757 whole entry): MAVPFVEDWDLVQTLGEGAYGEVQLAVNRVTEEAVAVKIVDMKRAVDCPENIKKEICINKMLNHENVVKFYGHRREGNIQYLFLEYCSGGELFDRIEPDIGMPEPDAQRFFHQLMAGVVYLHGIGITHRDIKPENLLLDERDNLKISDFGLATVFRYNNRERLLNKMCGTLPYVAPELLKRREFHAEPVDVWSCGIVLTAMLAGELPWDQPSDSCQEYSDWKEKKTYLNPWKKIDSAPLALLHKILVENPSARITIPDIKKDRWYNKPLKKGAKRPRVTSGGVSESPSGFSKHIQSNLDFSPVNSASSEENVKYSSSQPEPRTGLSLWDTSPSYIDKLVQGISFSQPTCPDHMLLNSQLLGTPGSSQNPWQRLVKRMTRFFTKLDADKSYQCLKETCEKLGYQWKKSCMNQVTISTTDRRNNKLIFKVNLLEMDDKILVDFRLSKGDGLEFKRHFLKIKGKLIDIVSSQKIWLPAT

[5] = molecular target: Cyclin-dependent kinase 9 (Homo sapiens, UniProt P50750); assay type: functional;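 further: value from the CDK9 entry of a kinome-spanning kinase panel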
[6] = molecular target: Dual specificity protein kinase CLK4 (Homo sapiens, UniProt Q9HAZ1); assay type: functional
Dual specificity protein kinase CLK4, sequence (Q9HAZ1 whole entry): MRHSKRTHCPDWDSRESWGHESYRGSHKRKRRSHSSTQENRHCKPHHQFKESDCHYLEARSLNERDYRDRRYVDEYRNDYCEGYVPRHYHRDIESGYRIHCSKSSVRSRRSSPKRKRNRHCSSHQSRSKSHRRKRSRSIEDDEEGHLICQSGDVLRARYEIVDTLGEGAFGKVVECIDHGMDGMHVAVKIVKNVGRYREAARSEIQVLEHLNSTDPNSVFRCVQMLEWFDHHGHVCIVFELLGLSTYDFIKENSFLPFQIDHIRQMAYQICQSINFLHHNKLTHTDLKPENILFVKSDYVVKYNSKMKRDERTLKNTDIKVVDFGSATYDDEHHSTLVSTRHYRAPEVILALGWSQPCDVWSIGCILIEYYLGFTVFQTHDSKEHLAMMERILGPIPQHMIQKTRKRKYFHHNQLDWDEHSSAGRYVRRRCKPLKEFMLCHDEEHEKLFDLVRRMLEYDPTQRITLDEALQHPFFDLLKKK

[7] = molecular target: Leucine-rich repeat serine/threonine-protein kinase 2 (Homo sapiens, UniProt Q5S007); assay type: functional;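 further: value from a broad kinome-wide panel profiling study in which LRRK2 was one of the kinases tested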
Aurora kinase A = Aurora kinase A (Homo sapiens, UniProt O14965); assay type: functional;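 further: value from the Navigating the Kinome kinase panel profiling, panel entry STK6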
Aurora kinase A, sequence (O14965 whole entry): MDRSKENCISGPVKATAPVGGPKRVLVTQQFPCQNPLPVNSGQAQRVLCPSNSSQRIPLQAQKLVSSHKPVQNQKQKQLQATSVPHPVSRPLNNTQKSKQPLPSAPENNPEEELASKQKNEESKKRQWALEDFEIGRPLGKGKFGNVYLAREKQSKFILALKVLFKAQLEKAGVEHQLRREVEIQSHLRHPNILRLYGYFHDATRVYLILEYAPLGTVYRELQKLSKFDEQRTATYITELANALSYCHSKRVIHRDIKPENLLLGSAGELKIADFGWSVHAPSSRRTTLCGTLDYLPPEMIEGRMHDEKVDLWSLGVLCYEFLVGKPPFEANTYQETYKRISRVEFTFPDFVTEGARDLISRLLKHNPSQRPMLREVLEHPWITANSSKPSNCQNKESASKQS

Aurora kinase B = Aurora kinase B (Homo sapiens, UniProt Q96GD4); assay type: functional
Aurora kinase B, sequence (Q96GD4 whole entry): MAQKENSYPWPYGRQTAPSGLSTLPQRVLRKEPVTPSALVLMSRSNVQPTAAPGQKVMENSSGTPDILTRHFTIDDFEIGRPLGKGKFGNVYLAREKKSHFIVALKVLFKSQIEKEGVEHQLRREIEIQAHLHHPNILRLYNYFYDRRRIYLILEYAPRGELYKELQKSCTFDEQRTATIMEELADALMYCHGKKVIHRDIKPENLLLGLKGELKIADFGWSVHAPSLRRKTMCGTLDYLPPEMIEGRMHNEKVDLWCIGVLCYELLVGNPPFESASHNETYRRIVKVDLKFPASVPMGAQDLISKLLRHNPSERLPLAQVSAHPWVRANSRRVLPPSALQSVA

[8] = Vero cell cytotoxicity, dose response, cytotoxicity control for M. tuberculosis growth inhibitor project, Vero cells, purified and synthesized compounds, set 4 (AID 504854); assay type: functional; conditions: Mycobacterium tuberculosis
[9] = THP-1 cell cytotoxicity, cytotoxicity control, set 4 (AID 504911); assay type: functional; conditions: Mycobacterium tuberculosis
[10] = THP-1 cell cytotoxicity, dose response, cytotoxicity control, set 3 (AID 504852); assay type: functional; conditions: Mycobacterium tuberculosis
Erythrocyte = test: FACS-based assay to assess parasite growth inhibition 96 hr Measured in Cell-Based System Using Flow Cytometry - 2126-05_Inhibitor_Dose_DryPowder_Activity. [Related pubchem assays (depositor defined):AID488774]; assay type: functional; conditions: Homo sapiens
[11] = FACS-based assay to assess parasite growth inhibition 48 hr Measured in Cell-Based System Using Flow Cytometry - 2126-03_Inhibitor_Dose_DryPowder_Activity. [Related pubchem assays (depositor defined):AID488774]; assay type: functional; conditions: Homo sapiens
[12] = A cell-based HTS for delayed death inhibitors of the malarial parasite plastid Measured in Microorganism System Using Plate Reader - 2126-02_Inhibitor_Dose_DryPowder_Activity.; assay type: functional, organism-based
[13] = A cell-based HTS for delayed death inhibitors of the malarial parasite plastid Measured in Microorganism System Using Plate Reader - 2126-01_Inhibitor_Dose_DryPowder_Activity.; assay type: functional, organism-based
[14] = nonselective inhibitors of cellular cAMP signaling, dose response, counter-screen for MC4R biased antagonist project, cell-based, TR-FRET cAMP detection (AID 602305); assay type: functional;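 further: U2OS cells stimulated with forskolin near its EC80 as the cAMP inducer; potency is for inhibition of forskolin-stimulated cAMP signaling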
Melanocortin receptor 4 = Melanocortin receptor 4 (Homo sapiens, UniProt P32245); test: MC4R antagonist potency on cAMP, dose response, cell-based, TR-FRET, biased antagonists (AID 602298); assay type: functional;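 further: antagonist potency against agonist-stimulated cAMP production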
[15] = molecular target: Vascular endothelial growth factor receptor 2 (Homo sapiens, UniProt P35968); assay type: functional
[16] = molecular target: Tyrosine-protein kinase Lck (Homo sapiens, UniProt P06239); assay type: functional;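 further: lck was assayed as one member of a kinase panel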
Ion channel NompC = Ion channel NompC (Danio rerio, UniProt Q7T1G6); test: Dose response cell-based high-throughput screening assay for agonists of the transient receptor potential channel N1 (TRPN1). [Related pubchem assays (depositor defined):AID1424, AID1448]; assay type: functional
Mucolipin-3 = molecular target: T1, Mucolipin-3 (Homo sapiens, UniProt Q8TDD5); test: Fluorescence counterscreen assay for […] agonists: dose response cell-based high-throughput screening assay to identify agonists of the transient receptor potential channel ML3 (TRPML3). [Related pubchem assays: 1424, 1448 ]; assay type: functional
T1 sequence (Q8TDD5 whole entry): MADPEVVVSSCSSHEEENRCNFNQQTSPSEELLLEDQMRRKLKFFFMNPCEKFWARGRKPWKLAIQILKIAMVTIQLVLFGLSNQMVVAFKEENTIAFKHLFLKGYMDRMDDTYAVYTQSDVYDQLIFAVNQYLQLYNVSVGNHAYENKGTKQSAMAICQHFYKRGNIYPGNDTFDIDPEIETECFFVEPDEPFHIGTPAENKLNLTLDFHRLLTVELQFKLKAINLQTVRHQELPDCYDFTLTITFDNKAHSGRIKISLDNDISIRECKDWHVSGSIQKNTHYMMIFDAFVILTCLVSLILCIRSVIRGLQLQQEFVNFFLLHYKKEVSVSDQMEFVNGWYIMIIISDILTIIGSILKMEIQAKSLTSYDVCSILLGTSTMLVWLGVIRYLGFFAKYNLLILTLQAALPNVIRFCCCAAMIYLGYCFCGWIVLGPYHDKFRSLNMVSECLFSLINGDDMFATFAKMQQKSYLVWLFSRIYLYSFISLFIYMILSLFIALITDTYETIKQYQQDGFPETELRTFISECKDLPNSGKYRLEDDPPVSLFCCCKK

Troponin, cardiac muscle = Troponin, cardiac muscle (Homo sapiens, UniProt P19429+P45379+P63316); test: Fluorescence-based biochemical high throughput dose response assay for activators of the calcium sensitivity of cardiac Regulated Thin Filaments (RTF). [Related pubchem assays (depositor defined):AID493008, AID493018, AID504382, AID504383]; assay type: protein-complex assay
[17] = molecular target: Multidrug resistance protein CDR2 (Candida albicans (strain SC5314 / ATCC MYA-2876) (Yeast), UniProt P78595); test: CaCDR2 efflux pump inhibitors in yeast, dose response, S. cerevisiae AD1-8u, singleplex, Cherry Pick1 hits (AID 588604); assay type: functional
[18] = molecular target: Cell division cycle 7-related protein kinase (Homo sapiens, UniProt O00311); assay type: functional;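 further: value obtained from a kinome-wide kinase panel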
[19] = molecular target: G protein-coupled receptor kinase 5 (Homo sapiens, UniProt P34947); test: Navigating the Kinome. Panel member name: GPRK5; assay type: functional
[20] = molecular target: Melanin-concentrating hormone receptor 1 (Homo sapiens, UniProt Q99705); test: Late-stage fluorescence-based counterscreen for antagonists of the G-protein coupled receptor 7 (GPR7): cell-based dose response assay to identify antagonists of the melanin-concentrating hormone receptor 1 (MCHR1) Set 5.; assay type: functional
Melanin-concentrating hormone receptor 1, sequence (Q99705 whole entry): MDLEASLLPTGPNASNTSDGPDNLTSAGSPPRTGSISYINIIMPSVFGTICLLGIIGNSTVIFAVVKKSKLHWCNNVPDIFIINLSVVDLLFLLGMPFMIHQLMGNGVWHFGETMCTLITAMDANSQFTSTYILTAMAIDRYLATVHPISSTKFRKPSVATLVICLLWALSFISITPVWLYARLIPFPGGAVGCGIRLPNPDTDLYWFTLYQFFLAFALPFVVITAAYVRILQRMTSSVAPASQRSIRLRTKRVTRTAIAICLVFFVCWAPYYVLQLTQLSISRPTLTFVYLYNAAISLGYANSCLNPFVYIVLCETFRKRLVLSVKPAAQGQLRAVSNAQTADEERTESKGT

[21] = molecular target: Neuropeptides B/W receptor type 1 (Homo sapiens, UniProt P48145); test: GPR7 antagonist potency, late-stage follow-up, cell-based, fluorescence, dose response, set 5 (AID 588566); assay type: functional
Neuropeptides B/W receptor type 1, sequence (P48145 whole entry): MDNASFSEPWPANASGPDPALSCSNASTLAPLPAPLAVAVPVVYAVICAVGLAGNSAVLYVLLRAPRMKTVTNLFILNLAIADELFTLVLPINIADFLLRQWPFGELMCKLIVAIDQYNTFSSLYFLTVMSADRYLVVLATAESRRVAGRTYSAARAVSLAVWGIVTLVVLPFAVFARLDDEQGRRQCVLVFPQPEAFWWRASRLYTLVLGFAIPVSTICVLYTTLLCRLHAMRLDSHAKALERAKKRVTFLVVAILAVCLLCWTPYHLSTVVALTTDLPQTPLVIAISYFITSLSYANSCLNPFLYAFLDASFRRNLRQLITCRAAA

[22] = molecular target: Glycogen synthase kinase-3 beta (Homo sapiens, UniProt P49841); test: GSK3beta kinase inhibitors, dose response, biochemical, microfluidics, dry powder samples, set 2 (AID 623989); assay type: functional
[23] = molecular target: T2, High affinity choline transporter 1 (Homo sapiens, UniProt Q9GZV3); test: CHT activators, dose response, cell-based, 10-point CRC, membrane potential dye (AID 602376); assay type: functional
T2 sequence (Q9GZV3 whole entry): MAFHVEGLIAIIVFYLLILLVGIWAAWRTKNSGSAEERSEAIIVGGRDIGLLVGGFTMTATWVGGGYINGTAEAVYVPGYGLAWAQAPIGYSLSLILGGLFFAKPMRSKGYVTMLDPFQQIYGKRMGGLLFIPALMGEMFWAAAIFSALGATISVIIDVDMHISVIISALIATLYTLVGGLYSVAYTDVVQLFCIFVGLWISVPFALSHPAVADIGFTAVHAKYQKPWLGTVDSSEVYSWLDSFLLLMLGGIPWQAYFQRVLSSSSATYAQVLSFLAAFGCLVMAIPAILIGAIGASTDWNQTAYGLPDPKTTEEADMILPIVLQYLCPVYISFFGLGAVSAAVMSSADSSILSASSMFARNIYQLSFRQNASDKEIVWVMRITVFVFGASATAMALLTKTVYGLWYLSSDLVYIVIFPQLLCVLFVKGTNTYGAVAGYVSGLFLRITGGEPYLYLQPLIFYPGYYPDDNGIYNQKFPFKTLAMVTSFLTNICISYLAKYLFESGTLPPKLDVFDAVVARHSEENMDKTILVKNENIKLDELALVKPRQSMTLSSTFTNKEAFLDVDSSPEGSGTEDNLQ

Hepatocyte growth factor receptor, sequence (P08581 whole entry): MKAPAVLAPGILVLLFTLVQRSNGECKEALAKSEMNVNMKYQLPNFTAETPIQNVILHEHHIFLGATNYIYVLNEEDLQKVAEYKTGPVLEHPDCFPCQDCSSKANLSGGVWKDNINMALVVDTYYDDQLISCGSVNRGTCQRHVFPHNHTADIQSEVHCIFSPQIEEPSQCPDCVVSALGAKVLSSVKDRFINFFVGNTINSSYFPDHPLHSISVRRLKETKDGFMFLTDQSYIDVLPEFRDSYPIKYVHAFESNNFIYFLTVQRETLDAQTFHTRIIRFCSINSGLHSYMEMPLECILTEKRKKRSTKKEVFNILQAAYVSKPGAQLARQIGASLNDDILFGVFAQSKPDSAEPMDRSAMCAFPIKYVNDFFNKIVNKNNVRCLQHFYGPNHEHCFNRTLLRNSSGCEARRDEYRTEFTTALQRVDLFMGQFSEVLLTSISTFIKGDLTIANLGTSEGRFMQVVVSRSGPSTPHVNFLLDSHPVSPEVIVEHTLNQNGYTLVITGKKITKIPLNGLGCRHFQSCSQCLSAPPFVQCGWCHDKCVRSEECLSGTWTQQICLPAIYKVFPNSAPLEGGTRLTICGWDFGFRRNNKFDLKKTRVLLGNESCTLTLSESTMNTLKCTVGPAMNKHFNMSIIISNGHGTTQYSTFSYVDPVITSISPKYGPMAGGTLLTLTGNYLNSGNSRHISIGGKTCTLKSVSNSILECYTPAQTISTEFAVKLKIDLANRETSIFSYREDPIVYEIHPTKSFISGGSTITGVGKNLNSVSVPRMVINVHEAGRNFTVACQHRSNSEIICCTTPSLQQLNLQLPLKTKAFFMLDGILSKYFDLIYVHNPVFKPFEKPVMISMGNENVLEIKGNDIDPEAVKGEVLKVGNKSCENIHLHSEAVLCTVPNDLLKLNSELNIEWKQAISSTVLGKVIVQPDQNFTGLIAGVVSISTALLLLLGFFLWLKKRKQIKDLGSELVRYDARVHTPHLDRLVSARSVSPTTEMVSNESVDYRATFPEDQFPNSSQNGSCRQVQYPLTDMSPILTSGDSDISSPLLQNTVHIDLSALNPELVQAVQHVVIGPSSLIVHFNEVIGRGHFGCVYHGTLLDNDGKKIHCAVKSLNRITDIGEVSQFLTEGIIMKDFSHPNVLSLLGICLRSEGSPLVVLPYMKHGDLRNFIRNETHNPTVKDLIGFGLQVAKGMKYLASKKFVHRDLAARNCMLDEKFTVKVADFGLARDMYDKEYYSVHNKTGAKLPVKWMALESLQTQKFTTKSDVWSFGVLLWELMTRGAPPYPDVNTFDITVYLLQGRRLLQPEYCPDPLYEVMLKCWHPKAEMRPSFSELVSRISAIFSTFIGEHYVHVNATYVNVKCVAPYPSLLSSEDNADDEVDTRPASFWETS

SMILES: Cc1csc2nc(N)nn12
- Ki [1]: 79.4 µM (active)
- Ki [2]: 79.4 µM (active)
- Ki [3]: 79.4 µM (active)
- Ki [4]: 31.6 µM (active)
- Ki [5]: 50.1 µM (active)
- Ki [6]: 31.6 µM (active)
- Ki [7]: 39.8 µM (active)

SMILES: Cc1ccc(-c2nc3ccc(Br)cc3c(C(=O)O)c2CC(=O)O)cc1C
- Ki (Aurora kinase A): 0.0631 µM (active)
- Ki (Aurora kinase B): 0.126 µM (active)

SMILES: CNC(=O)CSc1nc2ccccc2c(=O)[nH]1
- CC50 [8]: > 100 µM (active)
- CC50 [9]: > 100 µM (active)
- CC50 [10]: > 100 µM (active)

SMILES: Cc1noc(C)c1NC(=O)Nc1ccc2c(c1)C(=O)N([C@@H](C)CO)C[C@@H](C)[C@H](CN(C)S(=O)(=O)c1ccc(F)cc1)OCCCC[C@H](C)O2
- AC50 (Erythrocyte): 0.697 µM (active)
- AC50 [11]: 0.609 µM (active)
- AC50 [12]: 0.57 µM (active)
- AC50 [13]: 0.697 µM (active)

SMILES: CN(C(=O)COC(=O)CNC(=O)c1ccc(Cl)cc1Cl)c1ccccc1
- IC50 [14]: > 64.6 µM (inactive)
- IC50 (Melanocortin receptor 4): > 64.6 µM (inactive)

SMILES: O=C(Nc1cccc(-c2nc3sccn3c2-c2ccnc(Nc3ccccc3Cl)n2)c1)c1ccccc1
- Ki [15]: 0.794 µM (active)
- Ki [16]: 3.98 µM (active)

SMILES: C=CCn1c(=O)[nH]c2nc3cc(/N=C/N(C)C)c(C)cc3nc2c1=O
- EC50 (Ion channel NompC): 3.27 µM (active)
- EC50 (Mucolipin-3): 5.89 µM (active)
- EC50 (Troponin, cardiac muscle): 1.86 µM (active)
- EC50 [17]: 1.62 µM (active)

SMILES: CC(C)(C)c1cnc(CSc2cnc(NC(=O)C3CCNCC3)s2)o1 [BMS-387032]
- Ki [18]: > 3.98 µM (inactive)
- Ki [19]: > 3.98 µM (inactive)

SMILES: CCOc1ccc(Oc2c(Cl)c(N3CCCCC3)nn(Cc3cccc4ccccc34)c2=O)cc1
- IC50 [20]: > 20 µM (inactive)
- IC50 [21]: > 20 µM (inactive)

SMILES: Cc1ccc(S(=O)(=O)N2CCN(CC(=O)N/N=C/c3ccccn3)CC2)cc1
- AC50 [22]: 13.7 µM (active)

SMILES: CC(C)COP(=O)(OCC(C)C)C(Nc1ccccc1)c1ccc(F)cc1 (stereo not given)
- EC50 [23]: 12.2 µM (active)
